US20260022142A1, “MACROCYCLIC IMMUNOMODULATORS” (Bristol-Myers Squibb Company, priority 2022, published 2026)
Numbered stars: 1 amine (or outer) side, 2 acyl side, 3 side chain; on linkers, the order of the positions; unused ones are H or OH. Bridge positions count the residues as written; N and C are the ends. Square brackets hold non-standard residues; d marks the D form. Peptide text beside a SMILES is read from it. * marks the point of attachment. ξ: configuration not given here. Trp(βS-Me) = C[C@@H](c1c[nH]c2ccccc12)[C@H](N)C(=O)O; Phe(4-COOH) = N[C@@H](Cc1ccc(C(=O)O)cc1)C(=O)O; Bip = N[C@@H](Cc1ccc(-c2ccccc2)cc1)C(=O)O; Phe(3-Me) = Cc1cccc(C[C@H](N)C(=O)O)c1; γGlu = O=C(O)[C@H](CCC(=O)[*:2])N[*:1]; ξBip = NC(Cc1ccc(-c2ccccc2)cc1)C(=O)O; NH(CH2)12COOH = O=C(O)CCCCCCCCCCCCN*; Val(3-OH) = CC(C)(O)[C@H](N)C(=O)O; 2Pal = N[C@@H](Cc1ccccn1)C(=O)O; 4Pal = N[C@@H](Cc1ccncc1)C(=O)O; Cha = N[C@@H](CC1CCCCC1)C(=O)O; Cit = NC(=O)NCCC[C@H](N)C(=O)O; Thr(3ξ) = CC(O)[C@H](N)C(=O)O; 12Ado = NCCCCCCCCCCCC(=O)O; Carboxymethyl = O=C(O)C*; Orn = NCCC[C@H](N)C(=O)O; Aun = NCCCCCCCCCCC(=O)O; Dab = NCC[C@H](N)C(=O)O; Dap = NC[C@H](N)C(=O)O; ξD = NC(CC(=O)O)C(=O)O; AEEA = NCCOCCOCC(=O)O

Each molecule was assayed against T1, PD-1/PD-L1 interaction (PE-labeled human PD-L1-Ig binding to Jurkat cell line over-expressing human PD-1) (Homo sapiens, UniProt Q15116) (assay: Jurkat-PD-1 Cell Binding High-Content Screening Assay (CBA)). Conditions: Jurkat cell line over-expressing human PD-1; PE-labeled PD-L1-Ig 20 nM final; read-out: Jurkat hPD1-PDL1 IC50.
T1 construct: expressed in transfected cells; host or cells: Jurkat
T1 sequence (Q15116 25-288): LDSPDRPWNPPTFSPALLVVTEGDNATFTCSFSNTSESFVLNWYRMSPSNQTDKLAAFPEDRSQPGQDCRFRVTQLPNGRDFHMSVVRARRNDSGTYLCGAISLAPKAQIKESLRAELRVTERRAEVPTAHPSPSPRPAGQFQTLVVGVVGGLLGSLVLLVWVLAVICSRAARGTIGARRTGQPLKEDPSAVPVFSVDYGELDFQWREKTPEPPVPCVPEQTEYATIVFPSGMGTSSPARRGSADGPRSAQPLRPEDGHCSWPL
Format: cell-based
Method in brief: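 Read-out is high-content imaging of cell-bound phycoerythrin-tagged PD-L1-Ig on fixed, Hoechst-counterstained Jurkat cells that over-express human PD-1. Compound exposure lasts 2 h at 37° C before the labeled ligand (20 nM final) is added for a further hour.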

Structure (SMILES)	IC50
Cc1cccc(C[C@@H]2NC(=O)[C@H](CC(=O)O)NC(=O)[C@H](Cc3ccc(OCC(=O)O)cc3)NC(=O)[C@H](CCCNC(=N)N)NC(=O)CSC[C@@H](C(=O)NCCOCCOCC(=O)NCCCCCCCCCCC(=O)O)NC(=O)[C@H](CCCN)NC(=O)[C@H](C(C)C)NC(=O)[C@H](CC3CCCCC3)NC(=O)[C@H](CCN)NC(=O)[C@@H](CC(C)C)NC(=O)[C@H](CCN)NC(=O)[C@H](C(C)C)NC(=O)[C@H](Cc3ccc(-c4ccccc4)cc3)NC(=O)[C@H](C(C)C)NC2=O)c1 [Compound 3351] ({CH2CO}-RY(Carboxymethyl)D[Phe(3-Me)]V[Bip]V[Dab][dL][Dab][Cha]V[Orn]C[AEEA][Aun]-OH; thioether N-14)	4.2 nM
Cc1cccc(C[C@@H]2NC(=O)[C@H](CC(=O)O)NC(=O)[C@H](Cc3ccc(OCC(=O)O)cc3)NC(=O)[C@H](CN)NC(=O)CSC[C@@H](C(=O)N[C@@H](C)C(=O)N[C@@H](CCC(=O)NCC(=O)NCCCCCCCCCCC(=O)O)C(=O)O)NC(=O)[C@H]([C@@H](C)O)NC(=O)[C@H](C(C)C)NC(=O)[C@H](CC3CCCCC3)NC(=O)[C@H](CCN)NC(=O)[C@@H](CC(C)C)NC(=O)[C@H](CCCN)NC(=O)[C@H](CCCNC(N)=O)NC(=O)[C@H](Cc3ccc(-c4ccccc4)cc3)NC(=O)[C@H](C(C)C)NC2=O)c1 [Compound 1011] ({CH2CO}-[Dap]Y(Carboxymethyl)D[Phe(3-Me)]V[Bip][Cit][Orn][dL][Dab][Cha]VTCA[γGlu]G[Aun]-OH; thioether N-14)	8.8 nM
Cc1cccc(C[C@@H]2NC(=O)[C@H](CC(=O)O)NC(=O)[C@H](Cc3ccc(OCC(=O)O)cc3)NC(=O)[C@H](CCN)NC(=O)CSC[C@@H](C(=O)N[C@@H](CCN)C(=O)NCCOCCOCC(=O)NCCOCCOCC(=O)N[C@@H](CCC(=O)NCC(=O)NCCCCCCCCCCCCC(=O)O)C(=O)O)NC(=O)[C@H](Cc3cnc[nH]3)NC(=O)[C@H](C(C)(C)O)NC(=O)[C@H](CC3CCCCC3)NC(=O)[C@H](CCN)NC(=O)[C@@H](CC(C)C)NC(=O)[C@H](CCCN)NC(=O)[C@H](Cc3ccc(C(=O)O)cc3)NC(=O)[C@H](Cc3ccc(-c4ccccc4)cc3)NC(=O)[C@H](Cc3ccc(C(=O)O)cc3)NC2=O)c1 [Compound 1256] ({CH2CO}-[Dab]Y(Carboxymethyl)D[Phe(3-Me)][Phe(4-COOH)][Bip][Phe(4-COOH)][Orn][dL][Dab][Cha][Val(3-OH)]HC[Dab][AEEA][AEEA][γGlu]G-{NH(CH2)12COOH}; thioether N-14)	9.9 nM
CC(C)C[C@H]1NC(=O)[C@H](CCCN)NC(=O)[C@H](C(C)C)NC(=O)[C@H](Cc2ccc(-c3ccccc3)cc2)NC(=O)[C@H](C(C)C)NC(=O)[C@H](Cc2c[nH]c3ccccc23)NC(=O)[C@H](CC(=O)O)NC(=O)[C@H](Cc2ccc(OCC(=O)O)cc2)NC(=O)[C@H](CCCNC(N)=O)NC(=O)CSC[C@@H](C(=O)N[C@@H](CCCCN)C(=O)NCCCCCCCCCCC(=O)O)NC(=O)[C@H](C(C)O)NC(=O)[C@H](C(C)C)NC(=O)[C@H](CC2CCCCC2)NC(=O)[C@H](Cc2cnc[nH]2)NC1=O (stereo partly drawn) [Compound 3148] ({CH2CO}-[Cit]Y(Carboxymethyl)DWV[Bip]V[Orn][dL]H[Cha]V[Thr(3ξ)]CK[Aun]-OH; thioether N-14)	56.7 nM
Cc1cccc(C[C@@H]2NC(=O)[C@H](CC(=O)O)NC(=O)[C@H](Cc3ccc(OCC(=O)O)cc3)NC(=O)[C@H](CN)NC(=O)CSC[C@@H](C(=O)N[C@@H](CCN)C(=O)NCCCCCCCCCCC(=O)O)NC(=O)[C@H](Cc3ccccn3)NC(=O)[C@H](C(C)C)NC(=O)[C@H](CC(C)C)NC(=O)[C@H](CCN)NC(=O)[C@@H](CC(C)C)NC(=O)[C@H](CCCN)NC(=O)[C@H](Cc3ccc(O)cc3)NC(=O)[C@H](Cc3ccc(-c4ccccc4)cc3)NC(=O)[C@H](C(C)C)NC2=O)c1 [Compound 2763] ({CH2CO}-[Dap]Y(Carboxymethyl)D[Phe(3-Me)]V[Bip]Y[Orn][dL][Dab]LV[2Pal]C[Dab][Aun]-OH; thioether N-14)	54.9 nM
CC(C)C[C@H]1NC(=O)[C@H](CCCN)NC(=O)[C@H](Cc2ccc(OCC(=O)O)cc2)NC(=O)[C@H](Cc2ccc(-c3ccccc3)cc2)NC(=O)[C@H](Cc2ccc(OCC(=O)O)cc2)NC(=O)[C@H]([C@@H](C)c2c[nH]c3ccccc23)NC(=O)[C@H](CC(=O)O)NC(=O)[C@H](Cc2ccc(OCC(=O)O)cc2)NC(=O)[C@H](CCCNC(=N)N)NC(=O)CSC[C@@H](C(=O)N[C@@H](CCN)C(=O)NCCCCCCCCCCC(=O)O)NC(=O)[C@H]([C@@H](C)O)NC(=O)[C@H](C(C)C)NC(=O)[C@H](CC2CCCCC2)NC(=O)[C@H](CCN)NC1=O [Compound 2138] ({CH2CO}-RY(Carboxymethyl)D[Trp(βS-Me)]Y(Carboxymethyl)[Bip]Y(Carboxymethyl)[Orn][dL][Dab][Cha]VTC[Dab][Aun]-OH; thioether N-14)	109 nM

The remaining molecules from weak to strong by IC50, led by results:

IC50	Structure (SMILES)
46.5 nM	CC(C)C[C@H]1NC(=O)[C@H](CCCN)NC(=O)[C@H](C(C)C)NC(=O)[C@H](Cc2ccc(-c3ccccc3)cc2)NC(=O)[C@H](C(C)C)NC(=O)[C@H](Cc2c[nH]c3ccccc23)NC(=O)[C@H](CC(=O)O)NC(=O)[C@H](Cc2ccc(OCC(=O)O)cc2)NC(=O)[C@H](CN)NC(=O)CSC[C@@H](C(=O)N[C@@H](CCCN)C(=O)NCCCCCCCCCCC(=O)O)NC(=O)[C@H](C(C)O)NC(=O)[C@H](C(C)C)NC(=O)[C@H](CC2CCCCC2)NC(=O)[C@H](CC(N)=O)NC1=O (stereo partly drawn) [Compound 3149] ({CH2CO}-[Dap]Y(Carboxymethyl)DWV[Bip]V[Orn][dL]N[Cha]V[Thr(3ξ)]C[Orn][Aun]-OH; thioether N-14)
30.8 nM	Cc1cccc(C[C@@H]2NC(=O)[C@H](CC(=O)O)NC(=O)[C@H](Cc3ccc(OCC(=O)O)cc3)NC(=O)[C@H](Cc3ccncc3)NC(=O)CSC[C@@H](C(=O)N[C@@H](CCCN)C(=O)N[C@@H](CO)C(=O)NCCCCCCCCCCCC(=O)O)NC(=O)[C@H](C(C)O)NC(=O)[C@H](C(C)C)NC(=O)[C@H](CC3CCCCC3)NC(=O)[C@H](CCN)NC(=O)[C@@H](CC(C)C)NC(=O)[C@H](CCCN)NC(=O)[C@H](CCCNC(N)=O)NC(=O)[C@H](Cc3ccc(-c4ccccc4)cc3)NC(=O)[C@H](C(C)C)NC2=O)c1 (stereo partly drawn) [Compound 3585] ({CH2CO}-[4Pal]Y(Carboxymethyl)D[Phe(3-Me)]V[Bip][Cit][Orn][dL][Dab][Cha]V[Thr(3ξ)]C[Orn]S[12Ado]-OH; thioether N-14)
29.1 nM	CC(=O)NCCCC[C@@H]1NC(=O)[C@H](Cc2ccc(-c3ccccc3)cc2)NC(=O)[C@H](Cc2ccc(O)cc2)NC(=O)[C@H](Cc2cccc(C)c2)NC(=O)[C@H](CC(=O)O)NC(=O)[C@H](Cc2ccc(OCC(=O)O)cc2)NC(=O)[C@H](CCN)NC(=O)CSC[C@@H](C(=O)N[C@@H](CCN)C(=O)N[C@@H](CO)C(=O)NCCCCCCCCCCCC(=O)O)NC(=O)[C@H](CCCCN)NC(=O)[C@H](C(C)O)NC(=O)[C@H](CC2CCCCC2)NC(=O)[C@H](CCN)NC(=O)[C@@H](CC(C)C)NC(=O)[C@H](CCCN)NC1=O (stereo partly drawn) [Compound 3637] ({CH2CO}-[Dab]Y(Carboxymethyl)D[Phe(3-Me)]Y[Bip]K(Ac)[Orn][dL][Dab][Cha][Thr(3ξ)]KC[Dab]S[12Ado]-OH; thioether N-14)
19 nM	CC[C@H](C)[C@@H]1NC(=O)[C@H](Cc2ccc(-c3ccccc3)cc2)NC(=O)[C@H](C(C)C)NC(=O)[C@H](Cc2cccc(C)c2)NC(=O)[C@H](CC(=O)O)NC(=O)[C@H](Cc2ccc(OCC(=O)O)cc2)NC(=O)[C@H](CN)NC(=O)CSC[C@@H](C(=O)N[C@@H](CCCCN)C(=O)NCCCCCCCCCCC(=O)O)NC(=O)[C@H](CN)NC(=O)[C@H](C(C)C)NC(=O)[C@H](CC2CCCCC2)NC(=O)[C@H](CCN)NC(=O)[C@@H](CC(C)C)NC(=O)[C@H](CCCN)NC1=O [Compound 2638] ({CH2CO}-[Dap]Y(Carboxymethyl)D[Phe(3-Me)]V[Bip]I[Orn][dL][Dab][Cha]V[Dap]CK[Aun]-OH; thioether N-14)
18.4 nM	Cc1cccc(C[C@@H]2NC(=O)C(CC(=O)O)NC(=O)[C@H](Cc3ccc(OCC(=O)O)cc3)NC(=O)[C@H](CN)NC(=O)CSC[C@@H](C(=O)NCCOCCOCC(=O)N[C@@H](CCCNC(=N)N)C(=O)NCCCCCCCCCCC(=O)O)NC(=O)[C@H]([C@@H](C)O)NC(=O)[C@H](C(C)C)NC(=O)[C@H](CC3CCCCC3)NC(=O)[C@H](CCN)NC(=O)[C@@H](CC(C)C)NC(=O)[C@H](CCCN)NC(=O)[C@H](CCCNC(N)=O)NC(=O)C(Cc3ccc(-c4ccccc4)cc3)NC(=O)[C@H](C(C)C)NC2=O)c1 (stereo partly drawn) [Compound 1180] ({CH2CO}-[Dap]Y(Carboxymethyl)[ξD][Phe(3-Me)]V[ξBip][Cit][Orn][dL][Dab][Cha]VTC[AEEA]R[Aun]-OH; thioether N-14)
6.1 nM	CC[C@H](C)[C@@H]1NC(=O)[C@H](Cc2ccc(-c3ccccc3)cc2)NC(=O)[C@H](C(C)C)NC(=O)[C@H](Cc2cccc(C)c2)NC(=O)[C@H](CC(=O)O)NC(=O)[C@H](Cc2ccc(OCC(=O)O)cc2)NC(=O)[C@H](CN)NC(=O)CSC[C@@H](C(=O)N[C@@H](CCCCN)C(=O)NCCOCCOCC(=O)NCCCCCCCCCCC(=O)O)NC(=O)[C@H](CCCN)NC(=O)[C@H](C(C)C)NC(=O)[C@H](CC2CCCCC2)NC(=O)[C@H](CCN)NC(=O)[C@@H](CC(C)C)NC(=O)[C@H](CCCN)NC1=O [Compound 2652] ({CH2CO}-[Dap]Y(Carboxymethyl)D[Phe(3-Me)]V[Bip]I[Orn][dL][Dab][Cha]V[Orn]CK[AEEA][Aun]-OH; thioether N-14)
6.1 nM	CC(C)C[C@H]1NC(=O)[C@H](CCCN)NC(=O)[C@H](C(C)C)NC(=O)[C@H](Cc2ccc(-c3ccccc3)cc2)NC(=O)[C@H](C(C)C)NC(=O)[C@H](Cc2c[nH]c3ccccc23)NC(=O)[C@H](CC(=O)O)NC(=O)[C@H](Cc2ccc(C(=O)O)cc2)NC(=O)[C@H](Cc2ccc(OCC(=O)O)cc2)NC(=O)CSC[C@@H](C(=O)NCC(=O)NCCOCCOCC(=O)N[C@@H](CCCN)C(=O)NCCCCCCCCCCCC(=O)O)NC(=O)[C@H](CN)NC(=O)[C@H](C(C)C)NC(=O)[C@H](CC2CCCCC2)NC(=O)[C@H](CCN)NC1=O [Compound 3171] ({CH2CO}-Y(Carboxymethyl)[Phe(4-COOH)]DWV[Bip]V[Orn][dL][Dab][Cha]V[Dap]CG[AEEA][Orn][12Ado]-OH; thioether N-14)
